This is an account of results in US10426740B1, “Compositions and methods to inhibit stem cell and progenitor cell binding to lymphoid tissue and for regenerating germinal centers in lymphatic tissues” (AVM BIOTECHNOLOGY, LLC, priority 2010, dated 2019).

Where only a bound is given, the exact number is not on record here.

The subject of assay [1] is tumor necrosis factor-alpha. The note with it: cited from earlier work.
Assay [2] concerns spleen. Nature of the assay: In vivo sequestration of injected CTG-labeled MNC in the spleen, flow cytometry (Example 9). Details: species or system mouse. The note with it: cells injected day 7, one hour. (Flow cytometry measures light scatter and fluorescence of single cells or particles in a stream.)
Assay [3] deals with spleen. In words: Splenic sequestration and circulating numbers of injected CTG-labeled stem cells, flow cytometry (Example 14). The note with it: 1 mg IP days -7, -4, -1 (HED 7.4 mg/kg). It is filed as in vivo, mouse. From the text:
Control mice (n=4) were IP injected with the same volume per body weight of 70% ethanol diluted 1:10 in PBS. Sixty minutes later the mice were sacrificed by exsanguination and spleens and blood collected for flow cytometry. The spleens were dissociated to single cell suspensions prior to flow cytometry. CTG-labeled bone marrow mononuclear stem cells were detected in the spleen and lysed whole blood using flow cytometry.

Assay [4] has as its system osteoarthritis (OA), tendon injury, or osteochondral defect. In words: Equine outcome after stem cell (MSC) injection with dexamethasone pretreatment (Example 16). Type of assay: in vivo. The note with it: 5.7 mg/kg HED, one horse. On the procedure:
Approximately 48 hours later male or female horses with osteoarthritis (OA), tendon injury, or osteochondral defect were intra-articularly (IA) or intra-tendon injected with either allogeneic adipose-derived mesenchymal stem cells (MSCs) or with autologous, bone marrow derived culture expanded MSCs.

Assay [5] concerns germinal center. Nature of the assay: Germinal center intensity by FITC-PNA in spleen (Example 18). The note with it: about 48 hours, controls approximately 40. Type of assay: in vivo, mouse. On the procedure:
The mice were sacrificed by exsanguination and then residual blood cells flushed out with 5 U heparin/ml PBS via retrograde flush into the thoracic jugular vein. The spleens were removed, weighed wet, and then fixed in 10% formalin. Subsequently the spleens were sectioned via proprietary methods and then incubated with FITC-PNA at 4 deg.C for 24 hours, washed, placed on slides and immunofluorescent images were captured. Metamorph software was used to quantify the immunofluorescent signal. Average germinal center intensity measured by FITC-PNA average intensity was approximately 40 in controls, reduced to about 33 at the 6 mg/kg HED, reduced to about 22.5 at the 9 mg/kg HED, and further reduced to about 15 at the 11 mg/kg HED.

In assay [6] the test system is blood lymphocytes. Nature of the assay: Blood lymphocytes (CBC) after oral dexamethasone (Example 20). The note with it: placebo about 1700. Type of assay: in vivo, mouse.
Assay [7] concerns equine bone marrow MSC. Nature of the assay: Equine bone marrow CFU-F assay after IV dexamethasone (Example 21). Type of assay: in vivo, horse. The note with it: Day 14 after plating; 3.18 mg/kg (HED 6 mg/kg) IV; placebo about 46.6.
Assay [8] concerns equine bone marrow MSC. Nature of the assay: Osteocyte, chondrocyte and adipocyte differentiation of MSC from treated horses (Example 21). It is filed as in vivo, horse. The note with it: for osteocyte differentiation: not different. On the procedure: 1 g of Alizarin Red S (Sigma-Aldrich) was mixed with 50 ml of DI water to make a 50 ml solution of Alizarin Red S 2%. The pH of the Alizarin Red S solution was adjusted to 4.1-4.3 using ammonium hydroxide. The solution was filtered through a vacuum filtration system, then transferred to a 50 ml conical tube and stored protected from light.
250 mg of Oil Red O (Sigma-Aldrich) was added to 50 mL of isopropanol to make a 50 ml solution of Oil Red O 0.5%. The solution was mixed well, then filtered through a vacuum filtration system. After that, it was stored as a stock solution in a 50 ml conical tube wrapped in aluminum foil protected from light. On the staining day, 3 parts of stock Oil Red O 0.5% were mixed with 2 parts of DI water to make a working stock solution. This solution was incubated for 10 min and the forming precipitate removed by filtration through a sterile filter.
50 mg of Safranin O (Sigma-Aldrich) was added to 50 ml of DI water to make a 50 ml solution of Safranin O 0.1%. The solution was mixed well, then filtered through a vacuum filtration system. After that, it was stored in 50 ml conical tube protected from light.
After BM withdrawal from each vial for the Giemsa staining assay, another 100 μl of BM was withdrawn, and plated in CFU-F assay media (10 ml medium per T25 flasks; 2× total) 36 hours after it was extracted from the horse. MSCs were passaged in MesenCult™ MSC Basal Medium (Human; growth medium; including stimulatory supplement) until passage number 3 (P3). After trypsinization of the cells, they were mixed with an equivalent volume of growth medium, centrifuged (230 g for 3 min at RT) and resuspended in 1 ml of growth medium. Cells were counted and seeded using 30,000 cells/well of a 12 well plate (30,000 cells/well seeded in 3 wells; T1, T2 and one negative control). The seeded cells (P4) of T1 and T2 were left expanding in growth medium for two days, followed by a medium change into osteocyte differentiation medium (Stem Pro Osteocyte Differentiation Basal Medium and supplement; Gibco). The latter was changed every 2-3 days for all the plates. Morphological changes were documented by taking images using the EVOS XL Core microscope. Day 1 corresponds to MSCs being in differentiation medium for 24 h, Day 2 for 48 h etc. Two time points (T1: Day 4 and T2: Day 7 with one 12-well plate for both time points) were chosen for the osteocyte staining (Alizarin Red S) to assess the onset as well as the differentiation extent of MSCs from AVM0703 vs Placebo treated horses. […]
MSCs were passaged in MesenCult™ MSC Basal Medium (Human; including stimulatory supplement) until passage number 4 (P4). […] Cells were counted and seeded using a density of 80,000 cells/well of a 12 well plate (80,000 cells/well seeded in 3 wells; T1, T2 and one negative control). […]

For assay [9], the system named is active germinal centers in the spleen. Nature of the assay: Dexamethasone pretreatment: ex vivo stem cell binding to splenic sections, spleen weight, MNC and germinal centers (Example 8).
The mark [10] stands for this setting: single 1 mg, 7 days prior to harvest.

Regarding `Nc1cccc2c1CN(C1CCC(=O)NC1=O)C2=O` (stereo not drawn) [Lenalidomide], the “potency in inhibiting tumor necrosis factor-alpha relative to thalidomide” value in assay [1] is listed as 50,000 times.

Regarding `C[C@@H]1C[C@H]2[C@@H]3CCC4=CC(=O)C=C[C@]4(C)[C@@]3(F)[C@@H](O)C[C@]2(C)[C@@]1(O)C(=O)CO` [dexamethasone], the “reduction of MNC CTG total cell number accumulation in the spleen” value in assay [2] (3 mgs total (1 mg ip day 0, 2 and 5)) is on record as “approximately 70%”; in assay [2] (total 2 mgs (1 mg ip day 0 and day 4)) it was 33-43%. In assay [3] (controls 4,500), the “circulating numbers of CTG-stem cells” value is listed as 49,000 CTG-stem cells. Further, the “splenic sequestration 60 minutes after injection” value in assay [3] (controls 665,000) is reported as 285,000 CTG-stem cells. In addition, in [4], the “return to work, tendon injury (DDFT grade 3)” value is given as at most 6 months. The “average germinal center intensity measured by FITC-PNA average intensity” value is “about 33” in assay [5] (6 mg/kg HED IP), “about 22.5” in [5] (9 mg/kg HED IP) and “about 15” in [5] (11 mg/kg HED IP). The lymphocytes result in [6] (single acute HED 12 mg/kg oral on day -2) is listed as “about 170 per microliter”; in assay [6] (two repeat doses HED 6 mg/kg oral, day -2 and day -1), “about 1000 per microliter”. The “MSC number (CFU-F)” value in assay [7] is given as “about 78.8 CFU-F”. For the same molecule, the osteocyte differentiation worked out at 3.19 in [8] (day 4 of assay, placebo 1.75) and 4.58 in [8] (day 7 of assay, placebo 4.29). For the same molecule, the chondrocyte culture area in assay [8] (day 6 of assay, placebo 23.4%) amounted to 40.1%. In [8] (day 24 of assay, placebo 4.8, no difference), this molecule registered an adipocyte numbers of 7.4 adipocytes. Further, the “reduction of mononuclear stem cell binding to spleen sections” value in assay [9] (day 7 after single 1 mg IP) is given as 30-40%. In addition, in assay [9] (setting [10]), the “increase of percentage of stem cells within MNC fractions from whole blood or bone marrow compared to control (average)” value was 32%. The “reduction of PNA labeled germinal centers” value in assay [9] (setting [10]) is recorded as “up to 24%”. Further, in assay [9] (setting [10]), the “reduction of average circulating MNC number” value came to 34%. For the same molecule, the “reduction of spleen weights (average)” value in assay [9] (setting [10]) is 22%.
